Test results taken from the NIST ThermoML archive (doi:10.1016/j.jct.2018.02.021).
Where “and” joins values, the source holds several entries; their conditions need not be identical. Equal entries are not always repeated. ± gives the expanded uncertainty stated by the source.

Test: xn = mol fraction of the nth substance listed
Details: Gas, Buoyancy - hydrostatic balance with magnetic suspension - two sinkers

CC [ethane] + O=C=O
mass density (273.15 K, 531.09 kPa, x1 = 0.2003): 10.008 ± 0.0049 kg/m3 | mass density (273.15 K, 531.52 kPa, x1 = 0.2003): 10.0165 ± 0.0049 kg/m3 | mass density (273.15 K, 531.92 kPa, x1 = 0.2003): 10.0243 ± 0.0049 kg/m3 | mass density (273.15 K, 534.39 kPa, x1 = 0.2003): 10.0711 ± 0.0049 kg/m3 | mass density (273.15 K, 534.79 kPa, x1 = 0.2003): 10.0789 ± 0.0048 kg/m3 | mass density (273.15 K, 535.19 kPa, x1 = 0.2003): 10.087 ± 0.0049 kg/m3 | mass density (273.15 K, 535.63 kPa, x1 = 0.2003): 10.0955 ± 0.0049 kg/m3 | mass density (273.15 K, 544.52 kPa, x1 = 0.2003): 10.2735 ± 0.005 kg/m3 | mass density (273.15 K, 544.86 kPa, x1 = 0.2003): 10.2801 ± 0.005 kg/m3 | mass density (273.15 K, 548.14 kPa, x1 = 0.4995): 9.33133 ± 0.0046 kg/m3 | mass density (273.15 K, 551.38 kPa, x1 = 0.05023): 10.9267 ± 0.005 kg/m3 | mass density (273.15 K, 1023.8 kPa, x1 = 0.2003): 20.0462 ± 0.0086 kg/m3 | mass density (273.15 K, 1024.6 kPa, x1 = 0.2003): 20.0627 ± 0.0086 kg/m3 | mass density (273.15 K, 1025.4 kPa, x1 = 0.2003): 20.0779 ± 0.0086 kg/m3 | mass density (273.15 K, 1026.6 kPa, x1 = 0.2003): 20.1024 ± 0.0086 kg/m3 | mass density (273.15 K, 1027 kPa, x1 = 0.2003): 20.1108 ± 0.0086 kg/m3 | mass density (273.15 K, 1027.6 kPa, x1 = 0.2003): 20.1219 ± 0.0083 kg/m3 | mass density (273.15 K, 1037.4 kPa, x1 = 0.2003): 20.3384 ± 0.0087 kg/m3 | mass density (273.15 K, 1037.8 kPa, x1 = 0.2003): 20.347 ± 0.0087 kg/m3 | mass density (273.15 K, 1051.5 kPa, x1 = 0.4995): 18.6959 ± 0.0076 kg/m3 | mass density (273.15 K, 1075.8 kPa, x1 = 0.05023): 22.195 ± 0.0095 kg/m3 | mass density (273.15 K, 2035.1 kPa, x1 = 0.2003): 43.7258 ± 0.018 kg/m3 | mass density (273.15 K, 2035.5 kPa, x1 = 0.2003): 43.7371 ± 0.017 kg/m3 | mass density (273.15 K, 2050.8 kPa, x1 = 0.4995): 40.4917 ± 0.016 kg/m3 | mass density (273.15 K, 2062 kPa, x1 = 0.05023): 46.5645 ± 0.019 kg/m3 | mass density (273.15 K, 2554 kPa, x1 = 0.4995): 53.9302 ± 0.021 kg/m3 | mass density (273.15 K, 2562.2 kPa, x1 = 0.05023): 61.2253 ± 0.024 kg/m3 | mass density (273.15 K, 3037.3 kPa, x1 = 0.2003): 73.9637 ± 0.029 kg/m3 | mass density (273.15 K, 3037.9 kPa, x1 = 0.2003): 73.9838 ± 0.029 kg/m3 | mass density (273.15 K, 3053.1 kPa, x1 = 0.05023): 77.9966 ± 0.03 kg/m3 | mass density (273.15 K, 3054.4 kPa, x1 = 0.4995): 70.1143 ± 0.027 kg/m3 | mass density (273.15 K, 3480.6 kPa, x1 = 0.2003): 91.4391 ± 0.035 kg/m3 and 91.4331 ± 0.035 kg/m3 | mass density (273.15 K, 3488.2 kPa, x1 = 0.2003): 91.7868 ± 0.035 kg/m3 | mass density (273.15 K, 3488.7 kPa, x1 = 0.2003): 91.8117 ± 0.035 kg/m3 | mass density (273.15 K, 3489.4 kPa, x1 = 0.2003): 91.84 ± 0.035 kg/m3 | mass density (273.15 K, 3507.2 kPa, x1 = 0.2003): 92.6352 ± 0.036 kg/m3 and 92.638 ± 0.036 kg/m3 | mass density (283.15 K, 518.17 kPa, x1 = 0.2003): 9.36982 ± 0.0046 kg/m3 | mass density (283.15 K, 519.18 kPa, x1 = 0.05023): 9.86023 ± 0.0047 kg/m3 | mass density (283.15 K, 538.66 kPa, x1 = 0.4995): 8.79999 ± 0.0044 kg/m3 | mass density (283.15 K, 1030 kPa, x1 = 0.05023): 20.2371 ± 0.0086 kg/m3 | mass density (283.15 K, 1031.7 kPa, x1 = 0.4995): 17.4887 ± 0.0073 kg/m3 | mass density (283.15 K, 1041.5 kPa, x1 = 0.2003): 19.5141 ± 0.0081 kg/m3 | mass density (283.15 K, 2018.1 kPa, x1 = 0.4995): 37.3012 ± 0.015 kg/m3 | mass density (283.15 K, 2025.9 kPa, x1 = 0.05023): 42.9555 ± 0.018 kg/m3 | mass density (283.15 K, 2038.1 kPa, x1 = 0.2003): 41.2701 ± 0.016 kg/m3 | mass density (283.15 K, 3029.9 kPa, x1 = 0.05023): 70.7861 ± 0.029 kg/m3 | mass density (283.15 K, 3032.8 kPa, x1 = 0.4995): 62.9635 ± 0.024 kg/m3 | mass density (283.15 K, 3042.8 kPa, x1 = 0.2003): 68.0188 ± 0.026 kg/m3 | mass density (283.15 K, 3546.2 kPa, x1 = 0.05023): 88.2259 ± 0.033 kg/m3 | mass density (283.15 K, 3550.3 kPa, x1 = 0.4995): 79.7057 ± 0.032 kg/m3 | mass density (283.15 K, 4013.1 kPa, x1 = 0.4995): 98.6426 ± 0.039 kg/m3 | mass density (283.15 K, 4045.7 kPa, x1 = 0.05023): 108.543 ± 0.042 kg/m3 | mass density (283.15 K, 4069.8 kPa, x1 = 0.2003): 104.912 ± 0.041 kg/m3 | mass density (283.15 K, 4501.8 kPa, x1 = 0.2003): 126.607 ± 0.05 kg/m3 | mass density (283.15 K, 4602.7 kPa, x1 = 0.2003): 132.714 ± 0.054 kg/m3 | mass density (283.15 K, 4730.9 kPa, x1 = 0.2003): 141.359 ± 0.074 kg/m3 | mass density (283.15 K, 4821.7 kPa, x1 = 0.2003): 148.288 ± 0.084 kg/m3 | mass density (293.15 K, 519.57 kPa, x1 = 0.2003): 9.04307 ± 0.0044 kg/m3 | mass density (293.15 K, 525.66 kPa, x1 = 0.4995): 8.25163 ± 0.0042 kg/m3 | mass density (293.15 K, 1026.1 kPa, x1 = 0.4995): 16.6496 ± 0.0071 kg/m3 | mass density (293.15 K, 1034.3 kPa, x1 = 0.2003): 18.5618 ± 0.0079 kg/m3 | mass density (293.15 K, 2026.9 kPa, x1 = 0.2003): 38.8656 ± 0.016 kg/m3 | mass density (293.15 K, 2045.8 kPa, x1 = 0.4995): 35.8484 ± 0.014 kg/m3 | mass density (293.15 K, 3032.6 kPa, x1 = 0.4995): 58.2406 ± 0.023 kg/m3 | mass density (293.15 K, 3042.1 kPa, x1 = 0.2003): 63.2873 ± 0.025 kg/m3 | mass density (293.15 K, 4051.5 kPa, x1 = 0.4995): 88.2376 ± 0.035 kg/m3 | mass density (293.15 K, 4055.4 kPa, x1 = 0.2003): 93.5899 ± 0.037 kg/m3 | mass density (293.15 K, 4555.2 kPa, x1 = 0.4995): 107.86 ± 0.044 kg/m3 | mass density (293.15 K, 5019.3 kPa, x1 = 0.4995): 131.598 ± 0.055 kg/m3 | mass density (293.15 K, 5020.8 kPa, x1 = 0.2003): 133.141 ± 0.052 kg/m3 | mass density (308.15 K, 542.53 kPa, x1 = 0.4995): 8.06912 ± 0.0042 kg/m3 | mass density (308.15 K, 1040.9 kPa, x1 = 0.4995): 15.9143 ± 0.0068 kg/m3 | mass density (308.15 K, 2034.5 kPa, x1 = 0.4995): 33.0477 ± 0.013 kg/m3 | mass density (308.15 K, 3050.6 kPa, x1 = 0.4995): 53.2563 ± 0.021 kg/m3 | mass density (308.15 K, 4038.3 kPa, x1 = 0.4995): 76.6788 ± 0.029 kg/m3 | mass density (308.15 K, 4551.5 kPa, x1 = 0.4995): 90.9786 ± 0.037 kg/m3 | mass density (308.15 K, 5013.9 kPa, x1 = 0.4995): 105.639 ± 0.042 kg/m3 | mass density (323.15 K, 524.46 kPa, x1 = 0.05023): 8.6271 ± 0.0043 kg/m3 | mass density (323.15 K, 543.73 kPa, x1 = 0.4995): 7.68033 ± 0.0041 kg/m3 | mass density (323.15 K, 1024.4 kPa, x1 = 0.4995): 14.7964 ± 0.0064 kg/m3 | mass density (323.15 K, 1024.9 kPa, x1 = 0.05023): 17.2074 ± 0.0072 kg/m3 | mass density (323.15 K, 2039.4 kPa, x1 = 0.05023): 35.7934 ± 0.014 kg/m3 | mass density (323.15 K, 2040.2 kPa, x1 = 0.4995): 31.0101 ± 0.012 kg/m3 | mass density (323.15 K, 3036.4 kPa, x1 = 0.4995): 48.806 ± 0.019 kg/m3 | mass density (323.15 K, 3038.7 kPa, x1 = 0.05023): 55.972 ± 0.021 kg/m3 | mass density (323.15 K, 4027.4 kPa, x1 = 0.4995): 68.9564 ± 0.026 kg/m3 | mass density (323.15 K, 4049.9 kPa, x1 = 0.05023): 78.8065 ± 0.03 kg/m3 | mass density (323.15 K, 5024.6 kPa, x1 = 0.4995): 92.5708 ± 0.035 kg/m3 | mass density (323.15 K, 5061.4 kPa, x1 = 0.05023): 104.85 ± 0.039 kg/m3 | mass density (323.15 K, 5982.2 kPa, x1 = 0.4995): 119.675 ± 0.047 kg/m3 | mass density (323.15 K, 6013.8 kPa, x1 = 0.05023): 133.393 ± 0.049 kg/m3
